Assay results reported in patent US12655156B2, “Oxadiazolopyrazines and oxadiazolopyridines useful as mitochondrial uncouplers” (Virginia Tech Intellectual Properties, Inc., priority 2018, dated 2026).

system: whole cells (NMuLi, C2C12, and L6 cells, isolated cardiomyocytes, human primary fibroblasts); assay: Oxygen consumption rate (OCR) in whole cells, Seahorse XF-24 Flux Analyzer; assay type: cell-based; details: increase in OCR; binned EC50 values
Method in brief: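 NMuLi, C2C12 and L6 cells (3.5×10^4/well), cardiomyocytes (4×10^4/well) and human primary fibroblasts (1.1×10^4/well) adhered 24 h, then equilibrated 30 min at 37° C in unbuffered DMEM with pyruvate and glutamine, pH 7.4. Compounds injected during run; OCR read over 2 min periods. EC50 for OCR increase, binned.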

Structure (SMILES)	EC50 [µM]
Oc1nc2nonc2nc1Nc1ccc(-c2ccc(F)cc2)cc1 [1-112, 6-((4′-fluoro-[1,1′-biphenyl]-4-yl)amino)-[1,2,5]oxadiazolo[3,4-b]pyrazin-5-ol]	≤ 5
Oc1nc2nonc2nc1Nc1cccc(-c2ccc3c(c2)OC(F)(F)O3)c1 [1-126, 6-((3-(2,2-difluorobenzo[d][1,3]dioxol-5-yl)phenyl)amino)-[1,2,5]oxadiazolo[3,4-b]pyrazin-5-ol]	≤ 5
Oc1nc2nonc2nc1Nc1cc(C(F)(F)F)ccc1F [1-17, 6-((2-Fluoro-5-(trifluoromethyl)phenyl)amino)-[1,2,5]oxadiazolo[3,4-b]pyrazin-5-ol]	5 to 20
Oc1nc2nonc2nc1Nc1cccc(-c2ccc3c(c2)OCO3)c1 [1-120, 6-((3-(benzo[d][1,3]dioxol-5-yl)phenyl)amino)-[1,2,5]oxadiazolo[3,4-b]pyrazin-5-ol]	≤ 5
Oc1nc2nonc2nc1Nc1ccc(-c2ccc(F)c(C(F)F)c2)cc1 [1-109, 6-((3′-(difluoromethyl)-4′-fluoro-[1,1′-biphenyl]-4-yl)amino)-[1,2.5]oxadiazolo[3.4-b]pyrazin-5-ol]	≤ 5
O=[N+]([O-])c1cc(Nc2nc3nonc3nc2O)ccc1OC(F)(F)F [1-40, 6-((3-Nitro-4-(trifluoromethoxy)phenyl)amino)-[1,2,5]oxadiazolo[3,4-b]pyrazin-5-ol]	> 20
CCCCc1ccc(Nc2nc3nonc3nc2O)c(F)c1 [1-55, 6-((4-Butyl-2-fluorophenyl)amino)-[1,2,5]oxadiazolo[3,4-b]pyrazin-5-ol]	≤ 5
Oc1nc2nonc2nc1Nc1ccccc1F [1-3, 6-((2-Fluorophenyl)amino)-[1,2,5]oxadiazolo[3,4-b]pyrazin-5-ol]	5 to 20
O=[N+]([O-])c1cccc(Nc2nc3nonc3nc2O)c1 [1-206, 6-((3-nitrophenyl)amino)-[1,2,5]oxadiazolo[3,4-b]pyrazin-5-ol]	> 20
O=C1c2ccccc2-c2ccc(Nc3nc4nonc4nc3O)cc21 [1-127, 2-((6-hydroxy-[1,2,5]oxadiazolo[3,4-b]pyrazin-5-yl)amino)-9H-fluoren-9-one]	> 20
Oc1nc2nonc2nc1Nc1ccc(-c2cccc(C(F)(F)F)c2)cc1 [1-110, 6-((3′-(trifluoromethyl)-[1,1′-biphenyl]-4-yl)amino)-[1,2,5]oxadiazolo[3,4-b]pyrazin-5-ol]	5 to 20
Oc1nc2nonc2cc1Nc1ccc(OC(F)(F)F)c(F)c1 [1-230, 6-((3-fluoro-4-(trifluoromethoxy)phenyl)amino)-[1,2,5]oxadiazolo[3,4-b]pyridin-5-ol]	> 20
Oc1nc2nonc2nc1Nc1ccc(-c2cc(F)cc(F)c2)cc1 [1-121, 6-((3′,5′-difluoro-[1,1′-biphenyl]-4-yl)amino)-[1,2,5]oxadiazolo[3,4-b]pyrazin-5-ol]	≤ 5
Oc1nc2nonc2cc1Nc1cccc(C(F)(F)F)c1 [1-234, 6-((3-(trifluoromethyl)phenyl)amino)-[1,2,5]oxadiazolo[3,4-b]pyridin-5-ol]	> 20
CCCCCc1ccc(Nc2nc3nonc3nc2O)cc1 [1-71, 6-((4-pentylphenyl)amino)-[1,2,5]oxadiazolo[3,4-b]pyrazin-5-ol]	> 20
Oc1nc2nonc2cc1Nc1ccc(C(F)(F)F)cc1 [1-242, 6-((4-(trifluoromethyl)phenyl)amino)-[1,2,5]oxadiazolo[3,4-b]pyridin-5-ol]	> 20
Oc1nc2nonc2nc1Nc1ccc(OCc2ccccc2)cc1 [1-86, 6-((4-(benzyloxy)phenyl)amino)-[1,2,5]oxadiazolo[3,4-b]pyrazin-5-ol]	≤ 5
Oc1nc2nonc2nc1Nc1cccc(F)c1 [1-4, 6-((3-Fluorophenyl)amino)-[1,2,5]oxadiazolo[3,4-b]pyrazin-5-ol]	> 20
Oc1nc2nonc2nc1Nc1cccc(-c2ccc(OC(F)(F)F)cc2)c1 [1-136, 6-((4′-(trifluoromethoxy)-[1,1′-biphenyl]-3-yl)amino)-[1,2,5]oxadiazolo[3,4-b]pyrazin-5-ol]	≤ 5
Oc1nc2nonc2nc1Nc1ccc(-c2ccc(OC(F)(F)F)cc2)cc1 [1-105, 6-((4′-(trifluoromethoxy)-[1,1′-biphenyl]-4-yl)amino)-[1,2,5]oxadiazolo[3,4-b]pyrazin-5-ol]	5 to 20
Oc1nc2nonc2nc1Nc1cccc(C(F)(F)F)c1F [1-37, 6-((2-Fluoro-3-(trifluoromethyl)phenyl)amino)-[1,2,5]oxadiazolo[3,4-b]pyrazin-5-ol]	≤ 5
N#Cc1cc(-c2ccc(Nc3nc4nonc4nc3O)cc2)ccc1F [1-129, 4-fluoro-4′-((6-hydroxy-[1,2,5]oxadiazolo[3,4-b]pyrazin-5-yl)amino)-[1,1′-biphenyl]-3-carbonitrile]	5 to 20
Oc1nc2nonc2nc1Nc1ccc2c(c1)OC(F)(F)O2 [1-93, 6-((2,2-difluorobenzo[d][1,3]dioxol-5-yl)amino)-[1,2,5]oxadiazolo[3,4-b]pyrazin-5-ol]	5 to 20
CCCCC#Cc1ccc(Nc2nc3nonc3nc2O)c(F)c1 [1-63, 6-((2-Fluoro-4-(hex-1-yn-1-yl)phenyl)amino)-[1,2,5]oxadiazolo[3,4-b]pyrazin-5-ol]	≤ 5
Oc1nc2nonc2nc1NC1C2CC3CC(C2)CC1C3 [1-85, 6-(((1R,3R,5R,7R)-adamantan-2-yl)amino)-[1,2,5]oxadiazolo[3,4-b]pyrazin-5-ol]	> 20
Oc1nc2nonc2nc1Nc1cccc(-c2cc(F)cc(F)c2)c1 [1-119, 6-((3′,5′-difluoro-[1,1′-biphenyl]-3-yl)amino)-[1,2,5]oxadiazolo[3,4-b]pyrazin-5-ol]	≤ 5
Oc1nc2nonc2nc1Nc1ccc(C(F)(F)F)c(F)c1 [1-42, 6-((3-Fluoro-4-(trifluoromethyl)phenyl)amino)-[1,2,5]oxadiazolo[3,4-b]pyrazin-5-ol]	5 to 20
Oc1nc2nonc2nc1Nc1ccc(Br)cc1F [1-43, 6-((4-Bromo-2-fluorophenyl)amino)-[1,2,5]oxadiazolo[3,4-b]pyrazin-5-ol]	≤ 5
Oc1nc2nonc2nc1Nc1cccc2ccccc12 [1-50, 6-(Naphthalen-1-ylamino)-[1,2,5]oxadiazolo[3,4-b]pyrazin-5-ol]	5 to 20
Oc1nc2nonc2nc1Nc1cccc(-c2ccc(C(F)(F)F)nc2)c1 [1-115, 6-((3-(6-(trifluoromethyl)pyridin-3-yl)phenyl)amino)-[1,2,5]oxadiazolo[3,4-b]pyrazin-5-ol]	> 20

system: humans; assay: not given; details: patients consuming ~300 mg/d, over several months, without changes in food intake; cited from earlier work

Structure (SMILES)	Average weight loss [pounds per week]
O=[N+]([O-])c1ccc(O)c([N+](=O)[O-])c1 [DNP, 2,4-dinitrophenol]	1.5

system: Male C57BL/6J mice on western diet; assay: Diet induced obesity reversal mouse study; assay type: in vivo; details: WD containing 1-112, ~60 mg/kg/day, after 28 days of WD
Description: FIGS. 2A-2C. Diet induced obesity reversal data, for mice given a regular chow diet, a Western diet, or a Western diet plus compound 1-112. FIG. 2A, Body mass versus time; FIG. 2B, fat mass (measured by EchoMRI) versus time; FIG. 2C, food intake (last 14 days) versus time.
Male C57BL/6J mice aged 3 months were assigned to either normal chow diet (Chow, n=5) or western diet (WD, n=10) for 28 days. After 28 days half of the WD group were switched to WD containing compound 1-112 at a concentration resulting in consumption of ˜60 mg/kg/day 1-112 (1-112 60 mpk). Body mass (A), fat mass (measured by EchoMRI (B)), and food intake (C, for the final 14 days) were recorded as indicated.

Structure (SMILES)	Body mass	Fat mass (measured by EchoMRI)
Oc1nc2nonc2nc1Nc1ccc(-c2ccc(F)cc2)cc1 [1-112, 6-((4′-fluoro-[1,1′-biphenyl]-4-yl)amino)-[1,2,5]oxadiazolo[3,4-b]pyrazin-5-ol]	lost body weight	lost body weight and fat mass

same assay, conditions: WD containing 1-112, ~60 mg/kg/day; final 14 days

Structure (SMILES)	Food intake
Oc1nc2nonc2nc1Nc1ccc(-c2ccc(F)cc2)cc1 [1-112, 6-((4′-fluoro-[1,1′-biphenyl]-4-yl)amino)-[1,2,5]oxadiazolo[3,4-b]pyrazin-5-ol]	without a significant change in food intake
